For data set [1], the system named is RCS rats. The experiment in a line: Quantitative histology of ONL and INL cells, FA sustained-release intravitreal drug delivery implants (IDDIs) in RCS rats. The data set is classed as in vivo, rat. The text has this: According to this Example, the steroid fluocinolone acetonide (FA) was highly neuroprotective in slowing the retinal degeneration of RCS rats when delivered via sustained-release intravitreal drug delivery implants (IDDIs).

The nature of data set [2]: Drug release from PLGA microspheres. The class given is physicochemical. Conditions: ~5-10 μm PLGA microspheres containing 5% by mass of FA. As to the method: Drug release from PLGA microspheres was studied as follows. The drug release kinetics for free fluocinolone acetonide was analyzed for the same PLGA microspheres. For ˜5 -10 μm microspheres (containing 5% by mass of FA), the release was ˜0.5 μg/day (average) for the first thirty days, with a cumulative release of ˜30% in one month. There was 3% initial burst in the first three days. For dendrimer-FA conjugates, the initial burst may be capable of elimination due to their relatively larger size.

Data set [3] has as its system RCS rats. Nature of the data set: ERG b-wave amplitudes, FA IDDIs in RCS rats. The data set is classed as in vivo, rat. Here is the method:
In other experiments, fluocinolone acetonide preserved electroretinogram b-wave amplitudes in treated eyes. The ONL data were consistent with ERG findings in the same animals (FIG. 9A). […] Although mean b-wave amplitude values in the eyes treated with FA 0.5 μg/day were quantitatively lower than the values in the eyes treated with FA 0.2 μg/day, there was no statistically significant difference between them (p=0.113).
Quantitatively, the left eye-ERG b-wave amplitudes of the FA 0.2 μg/day-treated group at the four-week time point were greater than those of control right and left eyes and placebo group-right and left eyes. […] The fellow-eye effects were attributed to drug-crossover. This is commonly seen in small mammals in which the volume of distribution is small.

The test system of data set [4] is RCS rats. The experiment in a line: Electroretinography after single intravitreal injection of D-FA or free FA in RCS rats. The data set is classed as in vivo, rat. Conditions: for ERG a-wave amplitude change, OD / ERG a-wave amplitude change, OS / ERG b-wave amplitude change, OD / ERG b-wave amplitude change, OS: Mean±Standard Error. Here is the method:
Neuroprotective effects of dendrimer-FA (D-FA) nanodevices were determined as follows. The neuroprotective effects of intravitreally-injected D-FA nanodevices to free-FA injections and IDDIs that release free-FA at a sustained daily rate were compared. […] Here the 1 μg and 3 μg refer to the FA content in D-FA. ONL cell densities were higher for D-FA than those measured for IDDIs and free FA injections.
The efficacy was analyzed using electroretinography (ERG) and histology.
Thirty albino RCS rats aged five weeks were divided into six equal groups. The experiments were terminated at nine weeks. Thus, the efficacy was evaluated over the four-week peak period of retinal degeneration in the RCS rats. The groups were: • 1. intravitreal injection of 3.0 μg dendrimer-conjugated fluocinolone acetonide (FA) in 1.0 μL of Phosphate Buffered Solution (PBS); • 2. intravitreal injection of 1.0 μg dendrimer-conjugated FA in 1.0 μL of PBS; • 3. intravitreal injection of 3.0 μg FA in 1.0 μL of PBS; • 4. intravitreal injection of 1.0 μg FA in 1.0 μL of PBS; • 5. intravitreal injection of 1 μL of PBS (vehicle control); • 6. light-exposed unoperated controls.

Data set [5] is described as follows: Water solubility of the conjugate. The data set is classed as physicochemical. From the text: The glutaric acid spacer relieves the steric hindrance on the dendrimer surface, enabling intracellular drug release.
The filtrate was dialysed against DMSO for three days by replacing DMSO after each day (dialysis membrane cutoff 1000 Da) to remove unreacted compounds. The dialyzed product was dried under vacuum to obtain conjugate. ^1H-NMR was used to characterize the conjugate.

For data set [6], the system named is activated retinal microglial cells. The experiment in a line: Quantitative histology of activated retinal microglial cells by ED-1 immunolabelling, FA IDDIs in RCS rats. The data set is classed as in vivo, rat. Conditions: p<0.001. As to the method: FA suppressed neuroinflammation in RCS rats. In examining the mechanism of action of FA in preserving the ONL and ERG in the RCS rat, quantitative histological analysis of activated retinal microglial cells were performed using ED-1 immunolabelling. The photoreceptor layer and outer debris zone in RCS rats contain damaged lipid membranes that amplified photoreceptor damage by activating microglia to become phagocytic and release toxic substances such as tumor-necrosis factor alpha (TNF-α).

The subject of data set [7] is Royal College of Surgeons retinal degeneration model (RCS) rats. The experiment in a line: Retinal biodistribution after intravitreal injection, epi-fluorescence histology of retinal cryosections, RCS rats. The data set is classed as in vivo, rat. The text has this: Retinal biodistribution of free-FITC and dendrimer-conjugated FITC (D-FITC) in healthy Sprague-Dawley (SD) and Royal College of Surgeons retinal degeneration model (RCS) rats with active neuroinflammation was studied. Epi-fluorescence histology from retinal cryosections performed 24-hours and ten days after intravitreal injection is shown in […] as follows.
The first set of results is shown in FIGS. 10A-10F, epi-fluorescence histology from retinal cryosections performed twenty four hours and ten days after intravitreal injection, showing (FIG. 10A) D-FITC distribution in normal SD rats at twenty four hours, and (FIG. 10B) D-FITC distribution in the RCS retinal neurodegeneration model at twenty four hours. The concentration of D-FITC within the outer nuclear layer (denoted by *) and debris zone are significant findings.
The D-FITC localization in the outer-retina was further analyzed by immunohistochemical labeling for activated microglial cells, astrocytes, and Mueller cells and the photoreceptors (as shown in FIGS. 11A-11D, FIGS. 12A-12B, FIGS. 13A-13D, FIG. 14, and FIGS. 15A-15B). […] There was minimal accumulation in the other cells in the inner and outer retina. FIGS. 11A-11D show Microglial uptake of D-FITC. (FIG. 11A) ED-1 immuno-histochemical labeling of inner-retinal microglial cells; (FIG. 11B) D-FITC uptake within inner retinal microglia (60×); (FIG. 11C) outer retinal ED-1 labeled activated microglia; and (FIG. 11D) D-FITC uptake within activated microglia.

Where [8] appears, read: FA 0.5 μg/day IDDI, treated eyes, four-week study.
The mark [9] stands for this setting: 1.0 μg intravitreal in 1.0 μL PBS, end of study vs beginning.
The mark [10] stands for this setting: 3.0 μg intravitreal in 1.0 μL PBS, end of study vs beginning.

Take `CC1(C)O[C@@H]2C[C@H]3[C@@H]4C[C@H](F)C5=CC(=O)C=C[C@]5(C)[C@@]4(F)[C@@H](O)C[C@]3(C)[C@]2(C(=O)CO)O1` [FA, fluocinolone acetonide]: the “ONL cell densities relative to inactive IDDI group” value in data set [1] (FA 0.2 μg/day IDDI, treated eyes, four-week study) was found to be 4.85±0.24 times. Further, in data set [1] (FA 0.2 μg/day IDDI, treated eyes, four-week study, nine-week RCS rats), the “ONL cell densities relative to non-surgical controls” value is on record as 2.38±0.12 times. Further, in data set [1] (setting [8]), the “ONL counts relative to eyes that received inactive IDDIs” value was found to be 3.56±0.17 times and the “ONL counts relative to non-surgical control eyes” value is listed as 1.78±0.21 times. Moreover, in data set [1] (FA 0.2 and 0.5 μg/day IDDIs vs inactive implants and non-surgical controls), the “inner nuclear layer cell counts between groups” value is reported as “No significant differences”. Further, in data set [2] (first thirty days), the “release rate (average)” value is ~0.5 µg/day. In data set [2] (first three days), this compound had an initial burst of 3%. Moreover, the cumulative release in data set [2] (in one month) was ~30%. In data set [3] (0.2 μg/day and 0.5 μg/day FA IDDIs, p<0.001), the “mean four-week postoperative ERG b-wave amplitudes, treated eyes” value is “significantly greater than those of the unoperated control and placebo-treated eyes”. In addition, the “mean ERG b-wave amplitudes of left (fellow) eyes” value in data set [3] (FA 0.2 μg/day IDDI group vs placebo-treated or control eyes) was “No statistically significant differences”. Further, the “mean ERG b-wave amplitudes of left (fellow) eyes” value in data set [3] (FA 0.5 μg/day IDDI group, four weeks, cross-over effect) is “significantly different from those of right and left eyes of unoperated control animals”. In data set [4] (setting [9]), the “ERG a-wave amplitude change, OD” value is −41.9 ± 13.4%; the “ERG a-wave amplitude change, OS” value was −47.8 ± 7.7%; the “ERG b-wave amplitude change, OD” value is given as −64.2 ± 8.6%; the “ERG b-wave amplitude change, OS” value is reported as −55.6 ± 3.6%. Moreover, the “ERG a-wave amplitude change, OD” value in data set [4] (3.0 μg intravitreal in 1.0 μL PBS, end of study (9 weeks of age) vs beginning (5 weeks), loss (−)/gain (+) from initial amplitude) is reported as −12.5 ± 28.8%. In addition, in data set [4] (setting [10]), the “ERG a-wave amplitude change, OS” value is recorded as −10.5 ± 30.1%; the “ERG b-wave amplitude change, OD” value was −42.6 ± 3.3%; the “ERG b-wave amplitude change, OS” value is reported as −40.8 ± 3.5%. For the same compound, the “end-point ERG a-wave (photoreceptor response) amplitudes” value in data set [4] (at nine weeks of age, right vs left eyes) was “not true”. The solubility in water result in data set [5] is reported as “not water soluble at comparable concentrations”. In data set [6] (FA 0.2 μg/day IDDI), the “activated microglial cell densities in the debris layer vs eyes with inactive IDDIs” value is reported as “nine-fold decrease” and the “activated microglial cell densities in the debris layer vs non-surgical control eyes” value was “five-fold decrease”. Further, in data set [6] (FA 0.5 μg/day IDDI), the “debris zone activated microglial density vs eyes with inactive IDDIs” value is given as “seven times lower” and the “debris zone activated microglial density vs non-surgical control eyes” value was “four times lower”.

Take fluorescein isothiocyanate [Free-FITC]: in data set [7] (RCS rats, 24 hours after intravitreal injection), the “retinal distribution at 24 hours” value is “uniformly distributed”. Also, the “retinal retention at ten days” value in data set [7] (RCS rats, ten days after intravitreal injection) is “cleared from the retina”. Further, the “FITC fluorescence in the retinal pigment epithelium (RPE)” value in data set [7] (after intravitreal injection, 24 hours, similar at ten days) is “No FITC fluorescence was observed”.

For the origin of these results see patent publication US10463609B2, “Dendrimers for sustained release of compounds” (WAYNE STATE UNIVERSITY, priority 2007, dated 2019).
